The results in this text go back to patent US7465814B2, “Sulfonate compound and fluorescent probe using the same” (priority 2003, dated 2008).

Assay [1] in a line: Capability as superoxide-detecting fluorescent probe (reactivity with superoxide). Conditions: tested similarly to the compound 1d. It is filed as biochemical. How it is done:
Then, by mainly using the compound 1d as a testing compound, the capability thereof as a superoxide-selective fluorescent probe was evaluated, and moreover, a test in a cell system also was conducted. These tests will be described below.
Thus, it is thought that each compound synthesized from a combination of: a phenolic colorant; and a 2,4-dinitrobenzenesulfonyl group, a 4-trifluoromethyl-2-nitrobenzenesulfonyl group or a 4-nitrobenzenesulfonyl group can be used as a superoxide-detecting fluorescent probe similarly. An example of the usage thereof will be shown in Scheme 8 below. Furthermore, it can be expected that a compound for a fluorescent probe having characteristics that are suitable for its application purpose can be designed and developed freely, by designing the compound of the present invention freely within the limitation defined by the general formula (I) and using the fluorescence mechanism developed by the inventors of the present invention, without being limited to the above-described combinations. Examples of the application purpose of the compound of the present invention are varied, including an application to a faintly coloring technique using superoxide.

Assay [2] in a line: Reactivity with superoxide and glutathione (FIG. 4). It is filed as biochemical. Conditions: same conditions as 1-3 Superoxide-selectivity (2). How it is done:
(§1) Moreover, in other conditions than those of the above-described tests, reactivity of all of the compounds 1a to 1d with H2O2, other various kinds of nucleophilic agents, reducing agents and the like also was tested, respectively. More specifically, fluorescent responses of 1a to 1d with respect to a XO-HPX system, a XO-HPX-SOD system, H2O2, ascorbic acid, 1,4-hydroquinone, propylamine, diethylamine, glucose, esterase, a cytochrome P450 reductase+NADPH system, and a diaphorase+NADH system were measured, respectively. Operational processes thereof will be described below. Firstly, 1a to 1d and the above-described reagents were dissolved in HEPES of 10 mM having a pH of 7.4 so as to prepare solutions, respectively. Next, a 96 wellmicroplate was provided, where any of the solutions of 1a to 1d (25 μM, 170 μL) was poured into each of the wells, and furthermore, 30 μL of a blank solution or 30 μL of the solution of the reagent to be reacted therewith was added thereto. Final concentrations of the solutions in the wells were adjusted so that concentrations of the solutions of 1a to 1d respectively could be 21.3 μM, that of XO could be 13.1 mU/mL, those of HPX, H2O2, ascorbic acid, 1,4-hydroquinone, propylamine, diethylamine, glucose, NADPH and NADH respectively could be 50 μM, that of cytochrome P450 reductase could be 68 mU/mL, that of diaphorase could be 65 mU/mL, and that of esterase could be 0.5 U/mL, respectively. Then, after they reacted in the wells at 37° C. for 10 minutes, fluorescent responses were measured respectively. Fluorescence intensity measurement was conducted by using an ETC-272 Peltier thermostatted single cell holder (trade name) manufactured by JASCO Corporation or a SpectraMax GeminiEM fluorescence plate reader (trade name) manufactured by Molecular Devices Corporation provided with a FP-750 spectrofluorometer (trade name) manufactured by JASCO Corporation, and by setting excitation wavelengths and emission wavelengths so that those of 1a, 1b and 1c respectively could be 485 nm and 515 nm, and those of 1d respectively could be 511 nm and 540 nm.
(§2) The reactivity of each of the compounds 1d, 5a, 6a, 7 and 8a with respect to superoxide and glutathione (GSH) that is a kind of thiol was tested under the same conditions as those of [1-3. Superoxide-selectivity (2)] in Example 1. […] A vertical axis thereof denotes a fluorescence intensity, which is represented in % of control.

Assay [3] can be described thus: Responses to the compounds listed in Table 1. It is filed as biochemical. The settings on record: same conditions as Example 1. How it is done:
as §1, §2

A short description of assay [4]: Fluorescence response to glutathione, quantitativity (FIG. 5). It is filed as biochemical. The settings on record: for detection limit of GSH: probe 200 μL, HEPES pH 7.4, 37° C., 10 minutes; for inclination of calibration curve, GSH: up to 1000 pmol. How it is done: (§3) Quantitativity and the like of each of the compounds 6a and 8a with respect to a mercapto compound were evaluated, by using glutathione (GSH) and cysteine that are kinds of thiol. More specifically, an EtOH solution of the compound 6a (10 mM) was prepared, and it further was diluted by 500-fold with a HEPES buffer solution having a pH of 7.4, thereby preparing a probe solution containing the compound 6a. Next, 200 μL of this probe solution and 10 μL of each of solutions of glutathione or cysteine (dissolved in a HEPES buffer solution having a pH of 7.4) with various concentrations were added into each well of a 96-wellmicroplate, and were allowed to stand still at 37° C. for 10 minutes so as to undergo a reaction. Moreover, a probe solution containing 8a was prepared in the same manner as the preparation of the solution of the compound 6a except using 8a instead of 6a, and this probe solution also was allowed to react with a thiol solution in the same manner as the reaction of the probe solution containing 6a. Then, a fluorescence response of each well was measured after the reaction. The measurement of 6a was conducted at λex=383 nm and λem=500 nm, and the measurement of 8a was conducted at λex=483 nm and λem=515 nm. Herein, λex denotes an excitation wavelength, and λem denotes an emission wavelength.
(§4) FIG. 5A is a graph showing the measurement result of 6a, and FIG. 5B is a graph showing the measurement result of 8a.

A short description of assay [5]: Fluorescence response to cysteine, quantitativity (FIG. 5). Conditions: for detection limit of cysteine: probe 200 μL, HEPES pH 7.4, 37° C., 10 minutes; for inclination of calibration curve, cysteine: up to 1000 pmol. Type of assay: biochemical. How it is done:
as §3, §4

The nature of assay [6]: Reaction with other nucleophilic agents instead of thiol. Type of assay: biochemical. Conditions: same conditions as the thiol test. How it is done:
Quantitativity and the like of each of the compounds 6a and 8a with respect to a mercapto compound were evaluated, by using glutathione (GSH) and cysteine that are kinds of thiol. […] Moreover, a probe solution containing 8a was prepared in the same manner as the preparation of the solution of the compound 6a except using 8a instead of 6a, and this probe solution also was allowed to react with a thiol solution in the same manner as the reaction of the probe solution containing 6a. Then, a fluorescence response of each well was measured after the reaction. The measurement of 6a was conducted at λex=383 nm and λem=500 nm, and the measurement of 8a was conducted at λex=483 nm and λem=515 nm. Herein, λex denotes an excitation wavelength, and λem denotes an emission wavelength.

The nature of assay [7]: Fluorescence response to thiophosphonate group (FIG. 8). It is filed as biochemical. The source says:
Moreover, a capability of the sulfonate compound of the present invention as a fluorescent probe for mercapto compounds other than thiol (a compound in which a —SH group is bonded to a carbon atom) was examined. […]

Assay [8] deals with thiophosphorylated protein. The assay is described as follows: Fluorescence response to thiophosphorylated protein. Type of assay: biochemical.
The subject of assay [9] is acetyl cholinesterase (AChE). Conditions: range from 0.1 μU to 0.5 μU, 37° C., 10 minutes, acetyl thiocholine substrate.
Method: Firstly, an EtOH solution of the compound 8a (10 mM) was prepared, and it further was diluted by 500-fold with a HEPES buffer solution having a pH of 7.4, thereby preparing a probe solution containing the compound 8a (20 μM). Whereas, a solution (1 mM) was prepared by dissolving commercially available acetyl thiocholine in a HEPES buffer solution having a pH of 7.4. Moreover, acetyl cholinesterase (AChE) solutions (solutions obtained by dissolving acetyl cholinesterase in a HEPES buffer solution having a pH of 7.4) with various concentrations (activity levels) were prepared.
Next, 200 μL of the probe solution, 10 μL of the acetyl thiocholine solution and 10 μL of each of the acetyl cholinesterase (AChE) solutions with various concentrations (activity levels) were added into each well of a 96-wellmicroplate, and underwent an enzyme reaction at 37° C. for 10 minutes. Immediately after the reaction, a fluorescence response of each well was measured at λex (excitation wavelength) of 483 nm and λem (emission wavelength) of 515 nm.

For `O=c1cc(C(F)(F)F)c2ccc(OS(=O)(=O)c3ccc([N+](=O)[O-])cc3[N+](=O)[O-])cc2o1` [Compound 6a], the “deprotection by superoxide into the corresponding fluorochrome” value in assay [1] is recorded as “deprotected by superoxide”. Moreover, the “selectivity (specificity), superoxide versus glutathione, FIG. 4” value in assay [2] is reported as “excellent mercapto compound-selectivity”. In addition, the “response with respect to each of the compounds listed in Table 1” value in assay [3] was “almost no response”. In [4], the “detection limit of GSH” value was found to be 7 pmol and the “inclination of calibration curve, GSH” value is given as 0.37 au/pmol. Besides, in assay [5], the “detection limit of cysteine” value is reported as 7 pmol and the “inclination of calibration curve, cysteine” value worked out at 0.66 au/pmol. Besides, the “fluorescence with other nucleophilic agent instead of thiol” value in [6] is on record as “no fluorescence at all”. Further, in assay [7] (γ-S-ATP and adenosine monothiophosphate (S-AMP)), the “response to thiol group in thiophosphonate group” value is “responded to a thiol group in a so-called thiophosphonate group”.
Regarding `O=C(O)c1ccccc1-c1c2ccc(=O)cc-2oc2cc(OS(=O)(=O)c3ccc([N+](=O)[O-])cc3[N+](=O)[O-])ccc12` [Compound 8a], the “selectivity (specificity), superoxide versus glutathione, FIG. 4” value in assay [2] is on record as “excellent mercapto compound-selectivity”. The “response with respect to each of the compounds listed in Table 1” value in [3] is “almost no response”. In addition, in [4], the “detection limit of GSH” value amounted to 2 pmol and the “inclination of calibration curve, GSH” value was 4.25 au/pmol. In [5], the “detection limit of cysteine” value was determined as 1 pmol and the “inclination of calibration curve, cysteine” value amounted to 4.82 au/pmol. The “fluorescence with other nucleophilic agent instead of thiol” value in [6] was “no fluorescence at all”. For the same compound, in assay [7] (probe 20 μM 200 μL, imidazole buffer pH 7.4, 37° C., 180 minutes), the “detection limit of γ-S-ATP” value was determined as 5 pmol. For the same compound, in [8], the “fluorescence responses to thiophosphorylated protein with different introduction degrees of the thiophosphonate group” value was “fluorescence responses corresponding to the respective introduction degrees were obtained”. For the same compound, the “inclination, AChE activity versus fluorescence response” value in assay [9] was 28.8 au/μU.
